Experiments:
[1] = Cytotoxicity, neutral red, Vero E6; assay type: cell-based; details: African green monkey, Vero E6 cells (uninfected toxicity wells), with CPE assay, not converted for FBS
Experimental: Confluent or near-confluent cell culture monolayers of Vero E6 cells are prepared in 96-well disposable microplates the day before testing. Cells are maintained in MEM supplemented with 5% FBS. For antiviral assays the same medium is used but with FBS reduced to 2% and supplemented with 50-μg/ml gentamicin. Compounds are dissolved in DMSO, saline or the diluent requested by the submitter. […] The test compound is prepared at four serial log 10 concentrations, usually 0.1, 1.0, 10, and 100 μg/ml or μM (per sponsor preference). Lower concentrations are used when insufficient compound is supplied. Five microwells are used per dilution: three for infected cultures and two for uninfected toxicity cultures. Controls for the experiment consist of six microwells that are infected and not treated (virus controls) and six that are untreated and uninfected (cell controls) on every plate. A known active drug is tested in parallel as a positive control drug using the same method as is applied for test compounds. The positive control is tested with every test run.
Growth media is removed from the cells and the test compound is applied in 0.1 ml volume to wells at 2× concentration. Virus, normally at ˜60 CCID50 (50% cell culture infectious dose) in 0.1 ml volume is added to the wells designated for virus infection. […] The dye content in each well is quantified using a spectrophotometer at 540 nm wavelength. […]

[2] = test system: SARS-CoV-2 USA-WA1/2020; experiment: SARS-CoV-2 CPE assay, Vero E6 (Method 2); assay type: cell-based; details: Severe acute respiratory syndrome coronavirus 2, Vero C1008, 2% FBS
[3] = test system: SARS-CoV-2 USA-WA1/2020; experiment: SARS-CoV-2 CPE assay, A549-ACE2 (Method 2); assay type: cell-based; details: 2% FBS
[4] = test system: Norwalk Virus; experiment: Norwalk virus CPE assay, HG23 (Method 6); assay type: cell-based; details: Norovirus Norwalk Virus, 2% FBS, @ 5 μM
Experimental: (§1) Compounds were tested in an assay medium containing 2% fetal bovine serum (FBS). Test compounds were added to cells prior to infection with virus at a multiplicity of infection (MOI) sufficient to induce visible cytopathic effect (CPE). […] Additionally, the EC90 was defined as the concentration required to achieve a 1 log10 reduction in viral titer. Dose-response curves depicting viral CPE (red line) and compound cytotoxicity (purple line) were generated to support these analyses.

[5] = Cytotoxicity, MTT assay in uninfected A549; assay type: cell-based; details: human, uninfected A549 cells, with Influenza A IF assay, not converted
[6] = in vitro; details: dog, CC50 (μM), MDCK; with Influenza B CPE assays
[7] = test system: SARS-CoV-2 Omicron (B.1.1.529); experiment: SARS-CoV-2 IF assay, HeLa-ACE2 (Method 1); assay type: cell-based; details: Severe acute respiratory syndrome coronavirus 2, HeLa-ACE2, SARS-CoV-2 Omicron (B.1.1.529), 2% FBS
[8] = test system: SARS-CoV-2 Beta (B.1.351); experiment: SARS-CoV-2 IF assay, HeLa-ACE2 (Method 1); assay type: cell-based; details: 2% FBS
[9] = test system: FBS; experiment: Protein binding by rapid equilibrium dialysis (RED) in FBS; details: 1 μM, n = 3
[10] = Cytotoxicity, neutral red dye-uptake, HG23; assay type: cell-based; details: human, HG23 cells, with Norwalk Virus CPE assay, not converted
Experimental: as §1

[11] = test system: CoV229E; experiment: Anti-Coronavirus 229E cytoprotection (CPE) assay, MRC-5 (Method 3); assay type: cell-based, human Coronavirus 229E; details: Human coronavirus 229E, MRC5, […], read-out: CoV229E - EC50 (μM)
[12] = test system: MCF7 wild-type cell lines; experiment: MCF7 growth inhibition assay (Cell Titre Glo 2.0); assay type: cell-based; details: Homo sapiens, MCF7, 120 h, read-out: MCF-7 IC50 (μM)
Experimental: The growth inhibition properties of inhibitors on MCF7 wild-type cell lines were evaluated using the Cell Titre Glo 2.0 cell viability reagent. The assay utilized 384-well black clear bottom plates with 20 μl of MCF7 wild-type cell suspension mixed with reference/test compounds and 20 μl of Cell Titre Glo 2.0 reagent. Cells were seeded at a density of 1000 cells/well in DMEM High Glucose culture media+10% Fetal Bovine Serum (FBS). Staurosporine and Camptothecin served as positive controls for confirming cytotoxicity at a concentration of 30 μM, and vehicle control of 1% DMSO was used to standardize conditions across all test points. The assay and culture media both contained 1% DMSO. Assays were conducted in duplicate for each concentration of the test compounds. The incubation period for the assay was set at 120 hours, after which growth inhibition was assessed. Using a multi-mode reader, the assay readout was based on luminescence measured in Relative Light Units (RLUs). The viability luminescence signal was monitored continually from the same wells over an extended period, allowing for detailed analysis of cell viability. Measurements were taken using an integration time ranging from 0.25 to 1 second across plates designated for various time points.
Cells were maintained and seeded in 384 […] plates, maintaining 1000 cells/well. Seeded plates were incubated at 37° C., 5% CO2 for 16-18 hours to ensure optimal cell adherence and growth. Post-incubation, reference, and test compounds were added carefully to the wells for further processing. Plates were incubated again at 37° C., 5% CO2 for 120 hours (5 days) to allow compound effects. This was followed by the addition of CTG reagent as per the kit's instruction protocol for 30 minutes and RLU data to be recorded. Post plate read data to be analyzed using GraphPad Prism for software IC50 value generation.
Next, the NCEs were tested for selective estrogen regulation modulation activity by using a growth inhibition assay. The assay is performed on MCF7 cells, which are derived from a hormone-dependent breast cancer that stops growing upon estrogen receptor inhibition. […] Staurosporine and Camptothecin served as positive controls for cytotoxicity and 1% DMSO as the vehicle control.

Work on `Cc1c(-c2ccc(O)cc2)n(Cc2ccc(OCCN3CCCCC3)cc2)c2ccc(O)cc12` [Pipendoxifene] yielded a CC50 [1] of 3200 nM, an EC50 [2] of 520 nM and an EC50 [3] of 1900 nM. For the same molecule, the “percent effect printed in column EC50 (μM)” value [4] was 31% @, the CC50 at 24 h [5] was 13700 nM and the CC50 [6] was 9.8 µM. The EC50 [7] was 750 nM, the EC50 ([8]; SARS-CoV-2 Beta (B.1.351)) was 668 nM and the EC50 ([8]; Severe acute respiratory syndrome coronavirus 2, HeLa-ACE2, SARS-CoV-2 Beta (B.1.351)) was 1050 nM. For the same molecule, the “Mean unbound (Fub, %)” value ([9]; 2% heat inactivated FBS) was 25.0%, the “Mean unbound (Fub, %)” value ([9]; 10% heat inactivated FBS) was 5.0% and the “Mean unbound (Fub, %)” value ([9]; 10% not inactivated FBS) was 4.7%. For the same molecule, the CC50 [10] was 18000 nM, the EC50 [11] was 0.11 to 0.52 µM and the IC50 [12] was 0.00064 µM.
